Like-named read-outs stand apart in the source and are kept apart here.
Columns and labels:
[1] = test system: VEGFA concentration in medium of 786-O cells; test: VEGF ELISA Assay; format: cell-based; conditions: Homo sapiens
Protocol: Each concentration had duplicated wells. About 20 hours later, medium was removed by suction and each well was supplied with 180 μL of growth medium. About 20 μl freshly-made 10× compound stocks were added to each well. […] The EC50 was calculated by GraphPad Prism using the dose-response-inhibition (four parameter) equation. The cell seeded plate was then subjected to CellTiter-Glo luminescence cell viability assay (Promega) by adding 50 μL of Celltiter Glo reagent into each well and shaking the plate for 8 minutes at 550 rpm (Thermomixer R, Eppendorf) then read luminescence signal in plate reader (3 second delay, 0.5 second/well integration time, Synergy 2 multi Detection Microplate reader) immediately.

[2] = test system: 786-O-Hif-Luc cells (luciferase gene driven by multiple HIF responsive elements); test: Luciferase Assay; format: cell-based; conditions: 24 h, read-out: Mean Luciferease EC50
Protocol: A pool of infected cells were then selected against 2 μg/mL of puromycin (P8833, Sigma) for 10 days followed by limited dilution to select single clones.
Each concentration was tested in triplicate. After about 24 hours, luciferase activity was determined using ONE-Glo Luciferase Assay Reagent (E6110, Promega) following the manufacturer's recommended procedure. EC50 were calculated by using Dotmatics software.

[3] = 786-0, 786-O cells, read-out: Mean VEGF ELISA EC50
[4] = 786-O-Hif-Luc cells, about 24 hours
[5] = 786-0, read-out: Mean VEGF ELISA EC50

| Structure (SMILES) | EC50 [1, 3] [nM] | EC50 [2, 4] [nM] | EC50 [1, 5] [nM] | EC50 [2] [nM] |
| --- | --- | --- | --- | --- |
| N#Cc1cc(F)cc(Oc2ccc(S(=N)(=O)CF)c3c2CC(F)(F)[C@H]3O)c1 (single isomer, unassigned) [Compound 274] | 1440 | 190 |  |  |
| CS(=O)(=NC#N)c1ccc(Oc2cc(F)cc(C#N)c2)c2c1[C@H](O)C(F)(F)[C@@H]2F (single isomer, unassigned) [Compound 316] | 17 | 12 |  |  |
| O=S(=O)(c1ccc(Oc2cc(F)cc(Cl)c2)c2c1[C@H](O)CC2)C(F)F [Compound 1, (R)-4-(3-chloro-5-fluorophenoxy)-7-((difluoromethyl)sulfonyl)-2,3-dihydro-1H-inden-1-ol] |  |  | 250 |  |
| O=S(=O)(c1ccc(Oc2cc(F)cc(F)c2)c2c1[C@H](O)CC2)C(F)F [Compound 2, (R)-7-((Difluoromethyl)sulfonyl)-4-(3,5-difluorophenoxy)-2,3-dihydro-1H-inden-1-ol] | 62 | 70 |  |  |
| O=S(=O)(c1ccc(Oc2cc(F)cc(Cl)c2)c2c1C(O)C(F)(F)C2)C(F)F (stereo not shown) [Compound 8, 4-(3-chloro-5-fluoro-phenoxy)-7-(difluoromethylsulfonyl)-2,2-difluoro-indan-1-ol] | 33 | 17 |  |  |
| O=S(=O)(c1ccc(Oc2cc(F)cc(F)c2)c2c1C(O)C(F)(F)C2)C(F)F (stereo not shown) [Compound 9, 7-(difluoromethylsulfonyl)-4-(3,5-difluorophenoxy)-2,2-difluoro-indan-1-ol] | 6 | 9 |  |  |
| O=S(=O)(c1ccc(Oc2cc(F)cc(Cl)c2)c2c1C(O)CC2)C(F)F (stereo not shown) [Compound 17, 4-(3-chloro-5-fluorophenoxy)-7-((difluoromethyl)sulfonyl)-2,3-dihydro-1H-inden-1-ol] |  |  | 160 |  |
| Cc1c(S(=O)(=O)C(F)F)ccc(Oc2cc(F)cc(F)c2)c1C#N [Compound 34, 3-((Difluoromethyl)sulfonyl)-6-(3,5-difluorophenoxy)-2-methylbenzonitrile] | 460 | 520 |  |  |
| O=S(=O)(c1ccc(Oc2cc(F)cc(Cl)c2)c(Cl)c1CO)C(F)F [Compound 41, (2-Chloro-3-(3-chloro-5-fluorophenoxy)-6-((difluoromethyl)sulfonyl)phenyl)methanol] |  |  | 570 | 400 |
| O=S(=O)(c1ccc(Oc2cc(F)cc(F)c2)c2c1[C@H](O)CC2)C(F)(F)F [Compound 55, (R)-4-(3,5-Difluorophenoxy)-7-((trifluoromethyl)sulfonyl)-2,3-dihydro-1H-inden-1-ol] | 35 | 32 |  |  |
| O=S(=O)(CF)c1ccc(Oc2cc(F)cc(F)c2)c2c1[C@H](O)CC2 [Compound 60, (R)-4-(3,5-Difluorophenoxy)-7-((fluoromethyl)sulfonyl)-2,3-dihydro-1H-inden-1-ol] | 40 | 66 |  |  |
| O=S(=O)(CF)c1ccc(Oc2cc(F)cc(F)c2)c2c1[C@H](O)C(F)(F)C2 [Compound 64, (S)-4-(3,5-Difluorophenoxy)-2,2-difluoro-7-((fluoromethyl)sulfonyl)-2,3-dihydro-1H-inden-1-ol] | 1 | 5 |  |  |
| N#Cc1ccc(Oc2cc(F)cc(F)c2)c2c1[C@H](O)C(F)(F)C2 [Compound 67, (S)-7-(3,5-Difluorophenoxy)-2,2-difluoro-3-hydroxy-2,3-dihydro-1H-indene-4-carbonitrile] |  |  | 220 |  |
| N#Cc1cc(F)cc(Oc2ccc(S(=O)(=O)C(F)F)c(CO)c2Br)c1 [Compound 80, 3-(2-Bromo-4-((difluoromethyl)sulfonyl)-3-(hydroxymethyl)phenoxy)-5-fluorobenzonitrile] | 630 | 310 |  |  |
| N#Cc1c(S(=O)(=O)C(F)(F)F)ccc(Oc2cc(F)cc(Cl)c2)c1Br [Compound 98, 2-Bromo-3-(3-chloro-5-fluorophenoxy)-6-((trifluoromethyl)sulfonyl)benzonitrile] | 1580 | 3300 |  |  |
| N#Cc1cccc(Oc2ccc(S(=O)(=O)C(F)(F)F)c(C#N)c2Br)c1 [Compound 99, 2-Bromo-3-(3-cyanophenoxy)-6-((trifluoromethyl)sulfonyl)benzonitrile] | 550 | 420 |  |  |
| O=S(=O)(c1ccc(Oc2cc(F)cc(Cl)c2)c(Br)c1CO)C(F)(F)F [Compound 102, (2-Bromo-3-(3-chloro-5-fluorophenoxy)-6-((trifluoromethyl)sulfonyl)phenyl)methanol] | 640 |  |  |  |

| Structure (SMILES) | EC50 [1, 3] [nM] | EC50 [2, 4] [nM] | EC50 [1, 5] [nM] | EC50 [2] [nM] |
| --- | --- | --- | --- | --- |
| O=S(=O)(c1ccc(Oc2cc(F)cc(Cl)c2)c(C(F)F)c1)C(F)(F)F [Compound 124, 1-(3-Chloro-5-fluorophenoxy)-2-(difluoromethyl)-4-((trifluoromethyl)sulfonyl)benzene] |  |  | 400 | 330 |
| N#Cc1cc(F)cc(Oc2ccc(S(=O)(=O)C(F)F)cc2Br)c1 [Compound 132, 3-(2-Bromo-4-((difluoromethyl)sulfonyl)phenoxy)-5-fluorobenzonitrile] | 680 | 1400 |  |  |
| N#Cc1cc(S(=O)(=O)C(F)F)ccc1Oc1cc(F)cc(Cl)c1 [Compound 133, 2-(3-Chloro-5-fluorophenoxy)-5-((difluoromethyl)sulfonyl)benzonitrile] | 1870 |  |  |  |
| O=S(=O)(c1ccc(Oc2cc(F)cc(Cl)c2)c2c1[C@H](O)C(F)(F)C2)C(F)F [Compound 158, (1S)-4-(3-Chloro-5-fluoro-phenoxy)-7-(difluoromethylsulfonyl)-2,2-difluoro-indan-1-ol] | 6 | 5 |  |  |
| CS(=O)(=O)c1ccc(Oc2cc(F)cc(F)c2)c2c1C(O)C(F)(F)C2 (stereo not shown) [Compound 159, 4-(3,5-Difluorophenoxy)-2,2-difluoro-7-(methylsulfonyl)-2,3-dihydro-1H-inden-1-ol] | 7 | 5 |  |  |
| CS(=O)(=O)c1ccc(Oc2cc(F)cc(F)c2)c2c1[C@H](O)C(F)(F)C2 [Compound 161, (S)-4-(3,5-Difluorophenoxy)-2,2-difluoro-7-(methylsulfonyl)-2,3-dihydro-1H-inden-1-ol] | 11 | 4 |  |  |
| O=S(=O)(c1ccc(Oc2cc(F)cc(Cl)c2)c(Br)c1Cl)C(F)(F)F [Compound 179, 2-Bromo-3-chloro-1-(3-chloro-5-fluorophenoxy)-4-((trifluoromethyl)sulfonyl)benzene] | 1600 |  |  |  |
| N#Cc1cc(F)cc(Oc2ccc(S(=O)(=O)C(F)(F)F)c3c2CC(F)(F)[C@H]3O)c1 [Compound 185, (S)-3-((2,2-Difluoro-1-hydroxy-7-((trifluoromethyl)sulfonyl)-2,3-dihydro-1H-inden-4-yl)oxy)-5-fluorobenzonitrile] | 4 | 3 |  |  |
| O=S(=O)(c1ccc(Oc2cncc(Cl)c2)c2c1[C@H](O)C(F)(F)C2)C(F)(F)F [Compound 186, (S)-4-((5-Chloropyridin-3-yl)oxy)-2,2-difluoro-7-((trifluoromethyl)sulfonyl)-2,3-dihydro-1H-inden-1-ol] | 13 | 11 |  |  |
| O=S(=O)(CF)c1ccc(Oc2cc(F)c(F)c(F)c2)c2c1[C@H](O)C(F)(F)C2 [Compound 188, (S)-2,2-Difluoro-7-((fluoromethyl)sulfonyl)-4-(3,4,5-trifluorophenoxy)-2,3-dihydro-1H-inden-1-ol] | 88 | 51 |  |  |
| CS(=O)(=NC#N)c1ccc(Oc2cc(F)cc(F)c2)c2c1C(O)C(F)(F)C2 (stereo not shown) [Compound 191, N-((7-(3,5-difluorophenoxy)-2,2-difluoro-3-hydroxy-2,3-dihydro-1H-inden-4-yl)(methyl)(oxo)-λ^6-sulfanylidene)cyanamide] | 130 | 53 |  |  |
| O=S(=O)(c1ccc(Oc2ccc(F)c(F)c2)c2c1[C@H](O)C(F)(F)C2)C(F)F [Compound 196, (S)-7-((Difluoromethyl)sulfonyl)-4-(3,4-difluorophenoxy)-2,2-difluoro-2,3-dihydro-1H-inden-1-ol] | 47 | 46 |  |  |
| O=[N+]([O-])c1c(Oc2cc(F)cc(Cl)c2)ccc(C(F)(F)F)c1Cl [Compound 203, 2-Chloro-4-(3-chloro-5-fluorophenoxy)-3-nitro-1-(trifluoromethyl)benzene] | 700 | 630 |  |  |
| N#Cc1cncc(Oc2ccc(S(=O)(=O)C(F)(F)F)c3c2C[C@@H](F)[C@H]3O)c1 [Compound 225, 5-(((1S,2R)-2-Fluoro-1-hydroxy-7-((trifluoromethyl)sulfonyl)-2,3-dihydro-1H-inden-4-yl)oxy)nicotinonitrile] | 69 | 25 |  |  |
| N#Cc1cc(Oc2ccc(S(=O)(=O)C(F)(F)F)c3c2CC(F)(F)[C@H]3O)ccc1F [Compound 228, (S)-5-((2,2-Difluoro-1-hydroxy-7-((trifluoromethyl)sulfonyl)-2,3-dihydro-1H-inden-4-yl)oxy)-2-fluorobenzonitrile] | 28 | 33 |  |  |
| O=S(=O)(c1ccc(Oc2ccc(F)cc2)c2c1[C@H](O)C(F)(F)C2)C(F)(F)F [Compound 230, (S)-2,2-Difluoro-4-(4-fluorophenoxy)-7-((trifluoromethyl)sulfonyl)-2,3-dihydro-1H-inden-1-ol] | 29 | 16 |  |  |
| CS(=O)(=NC#N)c1ccc(Oc2cc(F)cc(C#N)c2)c2c1[C@H](O)C(F)(F)C2 (stereo partly shown) [Compound 240] | 81 |  |  |  |

From patent US10597366B2, “Aryl ethers and uses thereof” (Peloton Therapeutics, Inc., priority 2013, dated 2020)
